Results on one molecule are retold here after patent US5498632A, “Esters of acyl carnitines with long-chain aliphatic alcohols and pharmaceutical compositions containing same having antibacterial activity” (Sigma-Tau Industrie Farmaceutiche Riunite S.p.A., priority 1992, dated 1996).

The subject of one series is Gram- bacterial strains. In words: Mean MIC in broth and resistant strain number, Gram- strains. Type of series: cell-based. The following applies: 18 h; Gram- strains; versus susceptible strains; read-out: Mean MIC values. In a few lines: (§1)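 An overnight Mueller-Hinton culture was matched to 0.5 McFarland turbidity and adjusted to 5.0×10^4 CFU/ml final. Equal volumes of this suspension and two-fold compound dilutions were combined, then incubated 18 h at 37 °C before the minimal inhibitory concentration was read.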

Series [1] relates to Klebsiella aerogenes (SH 1082). In words: MIC in broth, Gram- strains. The following applies: 18 h, read-out: Minimal Inhibitory Concentration (MIC). Type of series: cell-based. In a few lines: as §1
The subject of series [2] is Klebsiella pneumoniae (7823). As to the kind of experiment: MIC in broth, Gram- strains. Type of series: cell-based. The conditions noted are these: 18 h, read-out: Minimal Inhibitory Concentration (MIC). In a few lines:
as §1

In series [3] the test system is Pseudomonas aeruginosa (3 E). In words: MIC in broth, Gram- strains. Type of series: cell-based. The conditions noted are these: 18 h, read-out: Minimal Inhibitory Concentration (MIC). Summed up:
as §1

Series [4] relates to Enterobacter aerogenes (UM). In words: MIC in broth, Gram- strains. Type of series: cell-based. The conditions noted are these: Klebsiella aerogenes, 18 h, read-out: Minimal Inhibitory Concentration (MIC). Summed up: as §1
Another series relates to Escherichia coli (92 F). In words: MIC in broth, Gram- strains. Type of series: cell-based. The conditions noted are these: 18 h, E. coli (92 F), read-out: Minimal Inhibitory Concentration (MIC). In a few lines: as §1
Series [5] concerns Pseudomonas aeruginosa (10 E). As to the kind of experiment: MIC in broth, Gram- strains. Type of series: cell-based. The following applies: 18 h, read-out: Minimal Inhibitory Concentration (MIC). Summed up: as §1
The subject of series [6] is Salmonella typhimurium (D.S.). As to the kind of experiment: MIC in broth, Gram- strains. Type of series: cell-based. The following applies: Salmonella enterica, 18 h, read-out: Minimal Inhibitory Concentration (MIC). Summed up: as §1
In a further series the test system is Salmonella typhi (J). As to the kind of experiment: MIC in broth, Gram- strains. Type of series: cell-based. The following applies: Salmonella enterica, 18 h, read-out: Minimal Inhibitory Concentration (MIC). In a few lines: as §1
The test system of a further series is Proteus vulgaris (UM). In words: MIC in broth, Gram- strains. Type of series: cell-based. The following applies: 18 h, read-out: Minimal Inhibitory Concentration (MIC). In a few lines:
as §1

A further series deals with Escherichia coli (76 F). As to the kind of experiment: MIC in broth, Gram- strains. Type of series: cell-based. The conditions noted are these: 18 h, E. coli (76 F), read-out: Minimal Inhibitory Concentration (MIC). Summed up: as §1
In a further series the test system is Escherichia coli (R 57B). As to the kind of experiment: MIC in broth, Gram- strains. The conditions noted are these: 18 h, E. coli (R 57B), read-out: Minimal Inhibitory Concentration (MIC). Type of series: cell-based. Summed up: as §1
A further series concerns Proteus morganii (D.S.). In words: MIC in broth, Gram- strains. Type of series: cell-based. The following applies: Morganella morganii, 18 h, read-out: Minimal Inhibitory Concentration (MIC). In a few lines: as §1
Series [7] concerns Serratia marcescens (A/1). As to the kind of experiment: MIC in broth, Gram- strains. Type of series: cell-based. The conditions noted are these: 18 h, read-out: Minimal Inhibitory Concentration (MIC). Summed up: as §1
The next series has as its system Klebsiella oxytoca (552). In words: MIC in broth, Gram- strains. Type of series: cell-based. The conditions noted are these: 18 h, read-out: Minimal Inhibitory Concentration (MIC). Summed up:
as §1

The next series relates to Proteus mirabilis (32). As to the kind of experiment: MIC in broth, Gram- strains. Type of series: cell-based. The following applies: 18 h, read-out: Minimal Inhibitory Concentration (MIC). Summed up: as §1
A further series relates to peritoneal macrophage. As to the kind of experiment: Test 4: peritoneal macrophage number in mice. Type of series: in vivo, mouse (male B6 D2 F1). The conditions noted are these: 100 mg/kg/day for 5 consecutive days, oral. Here is the method: Evaluation of the effect of repeated oral administrations of ST 722 on the peritoneal macrophage number in mice.
Male B6 D2 F1 mice (C. River) aged 10 weeks (6 animals each group) were orally treated with the substance ST 722 at the dose of 100 mg/kg/day for 5 consecutive days. Twenty-four hours after the last administration, the animals were sacrificed, the peritoneal exudate cells (PEC) collected and the macrophage number determined.

The subject of series [8] is Helicobacter pylori NCTC 11637. In words: In vitro synergistic effect of ST 722 and Bismuth Subcitrate. Type of series: cell-based. As for the experimental part:
CBS from the commercially available product De-Nol® (Gist-Brocades, Netherland), i.e. ammonium and potassium double salt of colloidal bismuth citrate hydroxide, was utilized by preparing a suspension of 10 mg/ml CBS in 1N NaOH. After diluting 1:10 in Mueller-Hinton broth, 8 serial two-fold dlitutions in the same medium were made. The compound ST 722 was dissolved in Mueller-Hinton broth at a starting concentration of 100 mcg/ml, then 7 serial two-fold dilutions were carried out.
The "in vitro" anti-Helicobacter activity of both CBS and ST 722, alone and in association, was tested by utilizing the strain H. pylori NCTC 11637.
A 24-hour culture of Helicobacter in Columbia agar medium supplemented with Vitox (Oxoid) and 7% defribinated horse blood is washed with Mueller-Hinton broth.
Following densitometric evaluation (reading at 600 nm), the bacterial suspension was adjusted to a concentration of 1.0×10^9 cells/ml and 0.2-ml volumes were distributed into each well of a 96-well U-bottomed microtiter plate.
A 1-μl volume of this bacterial suspension was then distributed, by means of a Steers-type replicator apparatus, into the wells of microtiter plates containing the substances, either alone or in association. The final bacterial inoculum contained approximately 1.0×10^6 bacterial cells.
The procedure described by Garrod et al. (GARROD, L. P. and WATERWORTH, P. M., 1962. Methods of testing combined antibiotic bactericidal action and the significance of the results. J. Clin. Pathol. 15, 328-338) was utilized.
Briefly, 250-μl volumes of each test substance, either alone or admixed in all the possible combinations, were additioned to 4.5 ml of Mueller-Hinton agar containing 5% defribinated horse serum. Volumes of 0.2 ml/well of the resulting solution were distributed into the wells of a microtiter plate, then seeded with 1 μl/well of a standardized bacterial suspension, and finally incubated for 48 hours at 37° C. in a 10% CO2 atmosphere.
In order to evaluate the results obtained with combinations of antibiotics it was utilized the method (KROGSTAD, D. J. and MOELLERING, R. C., 1983. Antimicrobial combinations. In LORIAN, V., Antibiotics in Laboratory Medicine, 15, 537-549) based on the calculation of the Fractional Inhibitory Concentration Index (FIC index).
FIC index is calculated as follows: [formula] Where (A) is the MIC of substance A in the association and (MICA) is the […] of the organism to substance A alone. FICA is the fractional inhibitory concentration of substance A. (B), (MICB) and FICB are defined in the same fashion for substance B.
Based on these criteria, the effect of a combination of 2 substances is referred to as 'synergistic" when the FIC index is ≤0.5, "additive" with a FIC index=1, and "antagonist" when FIC index is >1.

As for `CCCCCCCCCCCOC(=O)CC(C[N+](C)(C)C)OC(=O)CC(C)C` [ST 722, Isovaleryl-L-Carnitine Undecyl Ester Chloride], the MIC was 35.7 mg/L in the series with Gram- bacterial strains; 25 mg/L in [1]; 12.5 mg/L in series [2]; 50 mg/L in [3]; 25 mg/L in series [4]; 25 mg/L in the series with Escherichia coli (92 F). The MIC came to 50 mg/L in series [5]; 25 mg/L in [6]; 25 mg/L in the series with Salmonella typhi (J); 50 mg/L in the series on Proteus vulgaris (UM); 25 mg/L in the series on Escherichia coli (76 F); 25 mg/L in the series on Escherichia coli (R 57B). In addition, the MIC with Proteus morganii (D.S.) is 100 mg/L; in [7], 50 mg/L; in the series on Klebsiella oxytoca (552), 12.5 mg/L; with Proteus mirabilis (32) it was more than 100 mg/L; in series [8] (Helicobacter pylori, NCTC11637, substance alone, H. pylori NCTC 11637, 48 hours, read-out: MIC) it was 1.56 mg/L. In the series on peritoneal macrophage, this molecule displayed a Body weight of 28.13 ± 1.30 g. Further, in the series with peritoneal macrophage, the “increase in the peritoneal macrophages number” value is listed as “about 60%”. In addition, in the series with peritoneal macrophage, the “toxic effect in PEC macrophage population” value is given as “No toxic effect has been observed”. Moreover, in the series with peritoneal macrophage (6 pooled samples), the “PEC M.phi.” value turned out to be 63%. The “FIC (fractional inhibitory concentration)” value in [8] (ST 722 with CBS) turned out to be 0.12.
